In assay [1] the test system is Isolated Rat Aortic Tissue. The assay can be described thus: Inhibition of contractions in isolated rat aortic rings (aortic smooth muscle relaxing activity). Also noted: species or system Sprague-Dawley rats. The settings on record: isolated rat thoracic aorta rings, 25 mM KCl contracture, cumulative addition; read-out: IC50 or (% Inhibition of Aorta Contraction at 30 μM). The protocol:
Aortic smooth muscle relaxing activity of the compounds of this invention was established in accordance with standard pharmaceutically accepted test procedures in representative compounds as follows:
Sprague-Dawley rats (150-200 g) are rendered unconscious by CO2 asphyxiation and then euthanized by cervical dislocation. The thoracic aorta is removed into warm (37° C.) Krebs-Henseleit solution. The aorta is cleaned of fat and loose adventitia and cut into rings 3-4 mm in width. The rings are subsequently suspended between two stainless steel wire tissue holders in a 10 ml tissue bath. One wire tissue holder is attached to fixed hook while the other is attached to an isometric force transducer. Resting tension is set at 1.0 g. The tissues are allowed to recover for a period of 60 mins prior to beginning the experiment. The tissues are challenged with 25 mM KCl to elicit a contracture. The tissue are then washed repeatedly with fresh Krebs-Henseleit solution over a period of 30 mins and allowed to recover to baseline tension. 25 mM KCl is then introduced into the tissue bath to evoke a contracture that is allowed to stabilize for not less than 45 mins. Increasing concentrations of test compound or vehicle are then added to the tissue bath in a cumulative fashion.
Isometric force developed by the aortic rings is measured using force transducer and recorded on a polygraph. […]

In assay [2] the test system is Isolated Rat Bladder. The assay can be described thus: Inhibition of contractions in isolated rat bladder strips (bladder smooth muscle relaxing activity). Also noted: species or system Sprague-Dawley rats. The settings on record: 0.5 h, 15 mM KCl-enhanced contractions, 30 min challenge, read-out: IC50 or (% Inhibition of Bladder Contraction at 30 μM). The protocol:
Bladder smooth muscle relaxing activity of the compounds of this invention was established in accordance with standard pharmaceutically accepted test procedures in representative compounds as follows:
Sprague-Dawley rats (150-200 g) are rendered unconscious by CO2 asphyxiation and then euthanized by cervical dislocation. The bladder is removed into warm (37° C.) physiological salt solution (PSS) of the following composition (mM): NaCl, 118.4; KCl, 4.7; CaCl2, 2.5; […]; NaHCO3, 24.9; KH2 PO4, 1.2; glucose, 11.1; EDTA, 0.023; gassed with […]; pH 7.4. The bladder is opened and then cut into strips 1-2 mm in width and 7-10 mm in length. The strips are subsequently suspended in a 10 ml tissue bath under an initial resting tension of 1.5 g. The strips are held in place by two surgical clips one of which is attached to fixed hook while the other is attached to an isometric force transducer. […] The carbachol is then washed out and the tissue allowed to relax to its resting level of activity. Following one further 30 min period of recovery an additional 15 mM KCl are introduced into the tissue bath. […] Contractile activity is measured for each compound or vehicle concentration during the last min of a 30 min challenge. […]

For orientation: IC50 means the concentration at which inhibition is half-maximal. Regarding `CC1(C)C=C(c2c(N)c(=O)c2=O)c2cc(C#N)ccc2O1` [Example 2, 4-(2-Amino-3,4-dioxo-cyclobut-1-enyl)-2,2-dimethyl-2H-chromene-6-carbonitrile], the IC50 turned out to be 0.15 ± 0.02 µM in assay [1] and 0.39 ± 0.04 µM in assay [2].
For `CNc1c(C2=CC(C)(C)Oc3ccc(C#N)cc32)c(=O)c1=O` [Example 3, 2,2-Dimethyl-4-(2-methylamino-3,4-dioxo-cyclobut-1-enyl)-2H-chromene-6-carbonitrile], the IC50 in assay [1] was 0.56 ± 0.04 µM; in assay [2] it was 4.1 ± 1.8 µM.

(Values after patent US5482942A, “(3,4-dioxocyclobuten-1-yl)chromene, indene, and dihydronaphthalenone derivatives as smooth muscle relaxants” (American Home Products Corporation, priority 1994, dated 1996).)
